# Bridge positions count the residues as written; N and C are the ends. Square brackets hold non-standard residues; d marks the D form. Peptide text beside a SMILES is read from it. Phe(4-CH2NH2) = NCc1ccc(C[C@H](N)C(=O)O)cc1; Thz(5,5-Me2) = CC1(C)SCN[C@@H]1C(=O)O; NMeR = CN[C@@H](CCCNC(=N)N)C(=O)O; 3Amb = NCc1cccc(C(=O)O)c1; dAbu = CC[C@@H](N)C(=O)O
# Columns and labels:
# [1] = target: platelet GPIIb/IIIa receptors (Homo sapiens, UniProt P05106+P08514); settings: cited from earlier work
# [2] = target: activated platelet GPIIb/IIIa receptors (Homo sapiens, UniProt P05106+P08514); settings: cited from earlier work; for affinity for activated versus resting platelet GPIIb/IIIa: resting vs activated form
# [3] = target: resting platelet GPIIb/IIIa receptors (Homo sapiens, UniProt P05106+P08514); settings: resting form of GPIIb/IIIa; cited from earlier work
# platelet aggregation = assay: Platelet aggregation after in vivo oral administration (aggregometry from PRP); parameters: species or system mice; settings: after an oral dose of 100 mg/kg
# Description: An activated αIIbβ3 receptor antagonist in β3^+/+ mice was utilized in examples showing the role of platelet β3 integrin in the protection from bone metastases seen in the β3^−/− mouse. […] However, those skilled in the art will recognize that additional activated αIIbβ3 receptor antagonists may be used in the methods, the efficacies of which may be determined using the protocols of the present disclosure. Additional protocols are available to those skilled in the art to determine the efficacy of other activated αIIbβ3 receptor antagonists. Such activated αIIb3 receptor antagonists are meant to be encompassed within the scope of the present invention.
# (§1) C57BI6 mice were used to analyze metastasis antagonism. […] Blockade of platelet aggregation is complete at 30 minutes after oral gavage but persists for up to 10 hours. […] Thirty minutes after the first oral-gavage dose, mice were LV injected with B16 cells and evaluated for metastases 14 days later.
# B16 melanoma cells = assay: B16 LV injection metastasis model in β3+/+ mice; type: in vivo
# Description: The activated αIIbβ3 receptor antagonist was tested based on its ability to diminish metastases in wild type mice. […] The mice were treated 30 minutes prior to the LV injection of 1×10^5 B16 cells, and then every 12 hours for 5 doses (2.5 days of treatment out of the 14 day experiment). 14/40 (35%) mice died from bleeding complications after the LV injection indicative of effective disruption of αIIbβ3 mediated platelet aggregation. 1/17 (6%) placebo treated mice died after the LV injection procedure. […] Placebo in DMSO carrier was also administered by oral gavage. Mice were evaluated 14 days after B16 injection for bone and visceral metastases.
# Mice were anaesthetized followed by injection with 30 gauge needles of 1×10^5 B16 cells in 100 μl PBS into the left cardiac ventricle as previously described. Confirmation of correct insertion was established by pulsing geyser of blood in the syringe. After the injection mice were monitored daily for 14 days.
# as §1
# [4] = cited from earlier work
# Chain of activated platelet GPIIb/IIIa receptors (P08514 32-887 limits assumed): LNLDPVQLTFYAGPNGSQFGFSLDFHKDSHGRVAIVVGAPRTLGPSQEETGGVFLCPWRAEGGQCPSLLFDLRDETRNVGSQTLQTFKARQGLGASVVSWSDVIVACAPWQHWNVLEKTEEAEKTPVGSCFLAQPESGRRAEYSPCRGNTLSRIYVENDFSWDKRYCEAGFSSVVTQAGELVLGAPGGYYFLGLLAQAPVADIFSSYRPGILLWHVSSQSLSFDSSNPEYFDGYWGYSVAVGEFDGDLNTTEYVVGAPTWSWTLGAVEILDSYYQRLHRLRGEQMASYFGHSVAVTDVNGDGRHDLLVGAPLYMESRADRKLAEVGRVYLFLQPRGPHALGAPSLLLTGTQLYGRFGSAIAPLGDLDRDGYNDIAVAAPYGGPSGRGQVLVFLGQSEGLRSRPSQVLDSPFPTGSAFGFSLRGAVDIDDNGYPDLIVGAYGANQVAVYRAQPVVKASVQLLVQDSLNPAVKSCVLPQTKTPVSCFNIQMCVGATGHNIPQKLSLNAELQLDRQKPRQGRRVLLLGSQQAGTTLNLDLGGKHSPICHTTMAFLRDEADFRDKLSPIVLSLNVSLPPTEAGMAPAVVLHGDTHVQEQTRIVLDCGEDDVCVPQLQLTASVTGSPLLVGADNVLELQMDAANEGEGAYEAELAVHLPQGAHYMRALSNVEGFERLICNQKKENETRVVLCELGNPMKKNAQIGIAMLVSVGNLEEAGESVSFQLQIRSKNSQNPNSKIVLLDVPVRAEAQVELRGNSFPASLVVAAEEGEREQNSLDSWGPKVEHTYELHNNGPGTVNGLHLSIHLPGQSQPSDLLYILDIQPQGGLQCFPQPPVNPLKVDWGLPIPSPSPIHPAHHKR
# Chain of activated platelet GPIIb/IIIa receptors (P08514 891-1039 limits assumed): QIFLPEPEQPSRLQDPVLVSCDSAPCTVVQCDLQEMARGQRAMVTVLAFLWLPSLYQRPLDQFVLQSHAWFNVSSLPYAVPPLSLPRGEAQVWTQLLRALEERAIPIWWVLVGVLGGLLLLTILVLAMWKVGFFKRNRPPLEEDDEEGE
# Chain of activated platelet GPIIb/IIIa receptors (P05106 27-788): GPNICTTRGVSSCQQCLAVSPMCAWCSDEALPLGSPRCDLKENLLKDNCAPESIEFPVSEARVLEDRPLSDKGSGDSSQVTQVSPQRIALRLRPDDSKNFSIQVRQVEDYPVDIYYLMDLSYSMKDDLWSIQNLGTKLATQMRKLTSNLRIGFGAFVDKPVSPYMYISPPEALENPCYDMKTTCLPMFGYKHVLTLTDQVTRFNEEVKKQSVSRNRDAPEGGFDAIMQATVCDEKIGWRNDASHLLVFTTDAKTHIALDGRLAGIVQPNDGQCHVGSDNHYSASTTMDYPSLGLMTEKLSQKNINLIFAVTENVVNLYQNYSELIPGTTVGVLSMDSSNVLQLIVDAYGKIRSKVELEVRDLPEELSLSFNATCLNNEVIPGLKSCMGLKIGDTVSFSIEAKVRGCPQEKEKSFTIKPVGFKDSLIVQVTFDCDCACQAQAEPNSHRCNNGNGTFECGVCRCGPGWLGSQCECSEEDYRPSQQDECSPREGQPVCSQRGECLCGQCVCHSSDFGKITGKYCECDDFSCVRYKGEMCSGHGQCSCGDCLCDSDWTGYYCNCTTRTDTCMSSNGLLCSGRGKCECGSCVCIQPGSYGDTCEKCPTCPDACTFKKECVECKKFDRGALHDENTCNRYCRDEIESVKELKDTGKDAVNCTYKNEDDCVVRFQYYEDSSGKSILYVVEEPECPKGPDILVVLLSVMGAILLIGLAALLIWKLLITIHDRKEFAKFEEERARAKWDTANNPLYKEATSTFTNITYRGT
# Chain of platelet GPIIb/IIIa receptors (P08514 32-887 limits assumed): as the sequence (P08514 32-887 limits assumed) above
# Chain of platelet GPIIb/IIIa receptors (P08514 891-1039 limits assumed): as the sequence (P08514 891-1039 limits assumed) above
# Chain of platelet GPIIb/IIIa receptors (P05106 27-788): as the sequence (P05106 27-788) above
# Chain of resting platelet GPIIb/IIIa receptors (P08514 32-887 limits assumed): as the sequence (P08514 32-887 limits assumed) above
# Chain of resting platelet GPIIb/IIIa receptors (P08514 891-1039 limits assumed): as the sequence (P08514 891-1039 limits assumed) above
# Chain of resting platelet GPIIb/IIIa receptors (P05106 27-788): as the sequence (P05106 27-788) above
compound,measurement,setting,value
CC[C@H]1NC(=O)c2cccc(c2)CNC(=O)[C@H](CC(=O)O)NC(=O)CNC(=O)[C@H](CCCN=C(N)N)N(C)C1=O.CS(=O)(=O)O [DMP728] (cyclo([NMeR]GD[3Amb][dAbu])),platelet dissociation rate,[1],relatively fast
same,affinity for activated versus resting platelet GPIIb/IIIa,[2],much higher affinity to the activated form
C[C@H](CC(=O)O)NC(=O)CN1CCC[C@@H](CCC2CCNCC2)C1=O [L734217],Kd,[3],620 nM
same,platelet dissociation rate,[1],relatively fast
same,Kd,[2]; activated form of GPIIb/IIIa,5 nM
same,affinity for activated versus resting platelet GPIIb/IIIa,[2],much higher affinity to the activated form
"CC(=O)N[C@H]1CSSC[C@@H](C(=O)O)NC(=O)[C@H](CC(=O)O)NC(=O)CNC(=O)[C@H](Cc2ccc(CN)cc2)NC(=O)[C@H]2N(CSC2(C)C)C(=O)[C@@H](CC(N)=O)NC1=O [MK852] (Ac-C[dN][Thz(5,5-Me2)][Phe(4-CH2NH2)]GDC-OH; disulfide 1-7)",platelet dissociation rate,[1],relatively fast
same,affinity for activated versus resting platelet GPIIb/IIIa,[2],much higher affinity to the activated form
CCOC(=O)CCNC(=O)N1CCC2(CC1)CCN(c1ccc(C(=N)NO)cc1)C2=O [ML464],duration of disruption of platelet aggregation,platelet aggregation,up to 10 hours
same,surviving mice with bone metastases,"B16 melanoma cells; 100 mg/Kg oral every 12 hours for 5 doses, 14 days after B16 LV injection, vehicle 76%, P=0.0013",23%
same,visceral metastases versus placebo,"B16 melanoma cells; 100 mg/Kg oral every 12 hours for 5 doses, day 14, P=0.0125",decrease
same,mice died from bleeding complications after the LV injection,"B16 melanoma cells; 100 mg/Kg oral gavage, 30 minutes prior to LV injection, 14/40 mice",35%
same,number and size of visceral metastases versus placebo group,"B16 melanoma cells; mice that did develop metastases, tumor sizes not measured",reduced
same,metastases in inhibitor treated mice compared to placebo treated mice,"B16 melanoma cells; β3+/+ mice, FIG. 5(b)",decrease of metastases
CCCCOC(=O)N[C@@H](CNC(=O)C[C@H]1CC(c2ccc(C(=N)N)cc2)=NO1)C(=O)OC [roxifiban],platelet dissociation rate,[1],relatively slow
same,affinity for activated versus resting platelet GPIIb/IIIa,[2],comparable Kd values
Abciximab: Fab fragment of the chimeric human-murine monoclonal antibody 7E3,"human antibody response to the chimeric antibody, patients",[4],approximately 6%
